According to article PMC5884906, “Single Administration of HBK-15—a Triple 5-HT1A, 5-HT7, and 5-HT3 Receptor Antagonist—Reverses Depressive-Like Behaviors in Mouse Model of Depression Induced by Corticosterone” (Molecular Neurobiology, 2017):
pIC50, pKi: −log10 of the molar value. Read-outs that look alike come from different tables or passages of the source.

Assays:
[1] = test system: corticosterone-treated mice; test: forced swim test, single administration, corticosterone model; type: in vivo
Experimental: Mice were injected with corticosterone (s.c., 20 mg/kg) at random times during the light phase for consecutive 21 days (Fig. 1c). The dose and route of administration of corticosterone were based on studies performed by Zhao and colleagues. After the end of the procedure, next day 30 min before the test, corticosterone-treated mice were given (i.p.) saline, HBK-15 (1.25 mg/kg), fluoxetine (10 mg/kg), or ketamine (1 mg/kg) (Fig. 1c). Control mice received (i.p.) saline. The experimental groups consisted of eight randomly selected animals. We chose the dose of HBK-15 that was active in the chronic experiments (i.e., 1.25 mg/kg). The dose of ketamine was based on the studies performed by Pazini and colleagues. Animals were tested in the forced swim test and spontaneous locomotor activity test. After behavioral testing, mice were scarified and their hippocampi collected for biochemical analysis.
Forced swim test was performed according to the method described by Porsolt and colleagues and previously described. Mice were placed individually for 6 min in glass cylinders (height 25 cm, diameter 10 cm) containing […] (23–25 °C). The total time of immobility was recorded during the final 4 min of the test. The experiments were recorded and scored using aLab.io software by a trained observer blind to the treatments.

[2] = target: serotonin 5-HT1A receptor; parameters: method as in PMID 26554929; conditions: previous experiments; read-out: 5-HT1A receptor antagonist IC50; cited from earlier work
[3] = target: dopaminergic D2 receptors; parameters: method as in PMID 26554929; conditions: read-out: affinity for dopaminergic D2 receptors, Ki; cited from earlier work
[4] = distribution to brain after i.v. and i.p. administration; type: in vivo, mice; conditions: for Kp: brain and plasma, HBK-14 2.5 mg/kg, HBK-15 1.25 mg/kg, read-out: brain/plasma ratio
Experimental: (§1) For pharmacokinetic study, HBK-14 and HBK-15 dissolved in saline were administered by an intravenous (i.v.) and intraperitoneal (i.p.) administration at a dose of 2.5 and 1.25 mg/kg, respectively. Blood samples were collected at 0 min (predose), 5 min, 15 min, 30 min, 60 min, 120 min, and 240 min after compounds administration. The blood and brain samples were collected under general anesthesia induced by i.p. injections of 50 mg/kg ketamine plus 8 mg/kg xylazine. Blood samples were collected into heparinized tubes. The samples were immediately centrifuged at 3500 rpm for 10 min, and plasma was collected. The brain and plasma samples were immediately frozen at −80 °C for further analysis.
(§2) The quantification of studied compounds in plasma and brain samples was accomplished using UFLC Nexera system (Shimadzu, Kyoto, Japan) coupled to the triple quadrupole mass spectrometer QTrap 5500 (Sciex, Framingham, MA, USA) equipped with Turbo V™ ion source. After preparation, the samples were injected (5 μL) onto Acquity UPLC BEH C18 (3.0 × 100 mm, 1.7 μm, Waters, Milford, MA, USA) analytical column. The mobile phases that consisted of ACN with 0.1% FA (A) and water with 0.1% FA (B) were delivered in isocratic elution mode (40% A, 60% B) at the flow rate of 550 μL/min. The total time of analysis was 8 min including 2 min of column equilibration.
(§3) An amount of 50 μL of sample (plasma or brain homogenate) was transferred into the clean Eppendorf tube and spiked with 5 μL of internal standard solution (IS, 1 μg/mL) obtaining the final concentration of 100 ng/mL. After 5 min of mixing (1500 rpm), proteins were precipitated using 150 μL ACN. After 10 min of samples shaking (1500 rpm), the incubation step was performed (10 min, 4 °C). Next, samples were centrifuged (10,000 rpm, 10 min, 4 °C) and the supernatant was transferred into chromatographic vial for LC/MS/MS analysis.
The brain homogenate was prepared maintaining the tissue: phosphate-buffered saline (PBS) ratio at 1:5. The homogenization was carried out employing IKA® T10 Basic ULTRA-TURRAX disperser (IKA Werke GmbH & Co. KG, Staufen, Germany). After homogenization, all samples were centrifuged (3000 rpm, 10 min, 4 °C) and 50 μL of supernatant was collected for further preparation. All samples were stored on ice during the preparation process.

[5] = cited from earlier work
[6] = pharmacokinetic study in plasma after i.v. and i.p. administration; type: in vivo, mice; conditions: HBK-14 2.5 mg/kg, HBK-15 1.25 mg/kg; for AUC(0-inf) / C0: mouse plasma; for C0: read-out: C 0 (initial concentration); for Cmax / MRT / half-life / Tmax / bioavailability / clearance / Vd: CD-1, mouse, plasma; for Cmax: read-out: C max (maximum plasma concentration); for MRT: read-out: MRT (mean residence time) (converted); for half-life: read-out: t 0.5 (terminal half-life); for Tmax: read-out: t max (time to reach the maximum plasma concentration) (converted); for bioavailability: after i.p. administration, AUCi.p./AUCi.v., read-out: F (absolute bioavailability); for clearance: read-out: Cl (systemic clearance); for Vd: read-out: V d (volume of distribution at steady state)
Experimental: as §1
Pharmacokinetic parameters were calculated by a non-compartmental approach from the average concentration values, using Phoenix WinNonlin software (Certara, Princeton, NJ 08540, USA). First-order elimination rate constant (λ z) was calculated by linear regression of time vs log concentration. Next, the area under the mean serum and brain concentration vs time curve extrapolated to infinity (AUC0→∞) was estimated using the log-linear trapezoidal rule (Eq. 1), where C n is the concentration of last sampling of each compound.1 AUC0→∞=∑i=1nCi+Ci+1/2⋅ti+1−ti+Cn/λz
Area under the first moment curve (AUMC0→∞) was estimated by calculation of the total area under the first moment curve and extrapolated area using the Eq. 2, where t n is the time of last sampling.2 AUMC0→∞=∑i=1nti⋅Ci+ti+1⋅Ci+1/2⋅ti+1−ti+tn⋅Cn/λz+Cn/λz2
Mean residence time (MRT) was calculated as3 MRT=AUMC0→∞/AUC0→∞
Total clearance (ClT) was calculated as4 ClT=Div/AUC0→∞
Volume of distribution at steady state (Vss) was calculated as5 Vss=Div⋅AUMC0→∞/AUC0→∞^2
as §2
Electrospray ionization process was performed in positive polarization, and the data acquisition was carried out in multiple reaction monitoring mode (MRM) for all analytes and their internal standard (HBK-11 [37]). The ion spray source settings were as follows: spray voltage 4.5 kV, heater temperature 450 °C, curtain gas 25 psi, source gas 1 40 psi, source gas 2 40 psi.
as §3

[7] = cited from earlier work; remark: listed apart in the source
[8] = cited from earlier work; for effect on blood pressure after chronic treatment: antidepressant- and anxiolytic-like doses
mice = conditions: scopolamine-induced deficits; cited from earlier work
[9] = mouse, other: intravenous and intraperitoneal (both arms), after i.v. and i.p. administration

## COc1ccccc1N1CCN(CCOCCOc2c(C)cccc2Cl)CC1.Cl [HBK-15, 1-[(2-chloro-6-methylphenoxy)ethoxyethyl]-4-(2-methoxyphenyl)piperazine hydrochloride]
[1]; single 1.25 mg/kg i.p., 30 min before the test
  effect on corticosterone-induced increase in immobility: reversed an increase in immobility
[2]
  pIC50: 7.72
[3]
  pKi: 7.27
[4]; CD-1, mouse, ip
  Kp: 0.27
[4]; CD-1, mouse, iv
  Kp: 0.68
[4]; CD-1, mouse, brain, ip, 1.25 mg/kg, read-out: time of maximal concentration in the brain (converted)
  Tmax: 5 min
[4]; [9]
  Kp: < 1
[5]
  cholinolytic activity: negligible
[6]; CD-1, ip, i.p.
  AUC(0-inf): 261 ng·h/mL
[6]; CD-1, iv, i.v.
  AUC(0-inf): 484 ng·h/mL
  C0: 602 ng/mL
[6]; ip
  Cmax: 359 ng/mL
  MRT: 1.81 h
  half-life: 1.4 h
  Tmax: 5 min
  bioavailability: 54%
[6]; iv
  clearance: 40.2 mL/min/kg
  MRT: 1.5 h
  Vd: 3.5 L/kg
  half-life: 1.18 h
[6]; i.p.
  t 0.5 (terminal half-life): 1.39 h
[6]; i.v.
  t 0.5 (terminal half-life): 1.18 h
[7]
  antihistaminic activity: negligible
[8]
  effect on blood pressure after chronic treatment: neither HBK-14 nor HBK-15 lowered blood pressure
  hypotensive activity after single administration: did not exhibit hypotensive activity
mice
  effect on memory: showed memory-enhancing properties

## C[C@]12C[C@H](O)[C@H]3[C@@H](CCC4=CC(=O)CC[C@@]43C)[C@@H]1CC[C@@H]2C(=O)CO [corticosterone]
[1]; acute experiment, corticosterone 20 mg/kg s.c. 21 days + saline
  increase in immobility vs control: 20%

## COc1ccccc1N1CCN(CCOCCOc2c(C)cccc2C)CC1.Cl [HBK-14, 1-[(2,6-Dimethylphenoxy)ethoxyethyl]-4-(2-methoxyphenyl)piperazine hydrochloride]
[2]
  pIC50: 7.19
[4]; CD-1, mouse, ip
  Kp: 0.46
[4]; CD-1, mouse, iv
  Kp: 0.8
[4]; [9]
  Kp: < 1
[5]
  cholinolytic activity: negligible
[6]; CD-1, ip, i.p.
  AUC(0-inf): 560 ng·h/mL
[6]; CD-1, iv, i.v.
  AUC(0-inf): 1720 ng·h/mL
  C0: 410 ng/mL
[6]; ip
  Cmax: 269 ng/mL
  MRT: 0.805 h
  half-life: 0.633 h
  Tmax: 5 min
  bioavailability: 15%
[6]; iv
  clearance: 24.2 mL/min/kg
  MRT: 7.57 h
  Vd: 11.2 L/kg
  half-life: 5.38 h
[6]; i.p.
  t 0.5 (terminal half-life): 0.637 h
[6]; i.v.
  t 0.5 (terminal half-life): 5.378 h
[7]
  antihistaminic activity: negligible
[8]
  effect on blood pressure after chronic treatment: neither HBK-14 nor HBK-15 lowered blood pressure
